A word on the Kd: it is the equilibrium constant for the complex coming apart. High values mean a looser complex, low ones a tighter complex. One may read the IC50 as the point on the concentration scale where inhibition reaches its midpoint.

The text below walks through data of patent US11168102B1, “Bicyclic heteroaryl compounds and uses thereof” (Revolution Medicines, Inc., priority 2019, dated 2021).

Assay [1] has as its target SOS1 catalytic domain (residues 564-1049) (Homo sapiens (Human), UniProt Q07889). Description: Potency assay: binding affinity to SOS1 by Surface Plasmon Resonance (SPR). Conditions: avi-tagged SOS1 catalytic domain immobilized on sensor chip; 1:1 equilibrium binding fit.
The subject of assay [2] is cellular pERK in PC-9 cells (EGFR Ex19Del). Kind of assay: Potency assay: pERK (AlphaLISA SureFire Ultra p-ERK1/2) in PC-9 cells. It is filed as cell-based. Conditions: Homo sapiens, PC-9, 1 h, PC-9 cells (EGFR Ex19Del), 1 hour incubation, AlphaLISA SureFire Ultra p-ERK1/2; read-out: SOS1 pERK IC50.
Assay [3] concerns the target SOS1 nucleotide exchange of wild-type KRAS (Homo sapiens (Human), UniProt Q07889). Description: Mode of action assay: inhibition of SOS1 nucleotide exchange activity (TR-FRET). The assay is classed as biochemical. The settings on record: SOS1 catalytic domain (564-1049), avi-tagged KRAS (1-169), EDA-GTP-DY-647P1; three replicates.

Chain of SOS1 catalytic domain (residues 564-1049) (Q07889 564-1049): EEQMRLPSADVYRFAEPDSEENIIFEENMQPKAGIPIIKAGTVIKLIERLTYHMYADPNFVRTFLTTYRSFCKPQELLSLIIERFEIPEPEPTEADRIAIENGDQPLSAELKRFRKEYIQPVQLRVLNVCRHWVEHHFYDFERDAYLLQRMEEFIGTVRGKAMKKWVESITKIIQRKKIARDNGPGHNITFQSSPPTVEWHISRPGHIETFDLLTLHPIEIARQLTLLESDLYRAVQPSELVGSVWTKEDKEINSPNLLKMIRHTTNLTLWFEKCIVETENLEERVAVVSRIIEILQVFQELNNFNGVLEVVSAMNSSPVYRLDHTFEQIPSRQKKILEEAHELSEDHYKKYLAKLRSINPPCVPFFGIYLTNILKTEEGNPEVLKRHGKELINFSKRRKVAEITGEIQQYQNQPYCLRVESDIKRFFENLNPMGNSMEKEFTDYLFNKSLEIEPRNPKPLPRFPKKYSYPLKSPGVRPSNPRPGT
Chain of SOS1 nucleotide exchange of wild-type KRAS (Q07889 564-1049): as above

In the case of `C[C@@H](Nc1ncnc2c1cc(C1CCS(=O)(=O)C1)c(=O)n2C)c1cccc(C(F)F)c1F` (stereo partly drawn) [Example 33-1], the Kd in assay [1] worked out at 486 nM. Further, the IC50 in assay [2] stood at 62.1 nM; in assay [3] it was 42.7 nM.

In turn, `Cc1nc(N[C@H](C)c2cccc(C(F)F)c2F)c2cc(C3CCN(C)CC3)c(=O)n(C)c2n1` [Example 8-2] gave a Kd in assay [1] of 64.4 nM. For the same molecule, the IC50 stood at 265 nM in assay [2] and 21.2 nM in assay [3].

With `C[C@@H](Nc1ncnc2c1cc(C1=CCN(C)CC1)c(=O)n2C)c1cccc(C(F)(F)F)c1` [Example 1-8], the Kd in assay [1] turned out to be 20 nM. Moreover, the results for the IC50 in assay [2] and in assay [3] were 169 nM and 20.1 nM, respectively.

`C[C@@H](Nc1ncnc2c1cc(C(=O)N1CC(O)(C(F)(F)F)C1)c(=O)n2C)c1cccc(C(F)F)c1F` [Example 26-41] showed a Kd in assay [1] of 420 nM. In addition, the IC50 is 1400 nM in assay [2] and 170 nM in assay [3].

In assay [1], `Cc1nc(N[C@H](C)c2cccc(C(F)F)c2F)c2cc(C3=CCOC3)c(=O)n(C)c2n1` [Example 1-7] came in with a Kd of 353 nM. Moreover, the IC50 in assay [2] came out at 693 nM; in assay [3], 257 nM.

Take `C[C@@H](Nc1ncnc2c1cc(C(=O)N1CCN(C)CC1)c(=O)n2C)c1cccc(C(F)F)c1F` [Example 26-7]: in assay [1], the Kd was determined as 77.5 nM. Further, the IC50 is 186 nM in assay [2] and 50.8 nM in assay [3].

`C[C@@H](Nc1ncnc2c1cc(C(=O)N1C3CC1CN(C)C3)c(=O)n2C)c1cccc(C(F)F)c1F` [Example 26-11] displayed a Kd in assay [1] of 97.8 nM. The IC50 in assay [2] was found to be 251 nM; in assay [3] it was 46.1 nM.

Take `C[C@@H](Nc1ncnc2c1cc(C1=C[C@H]3CNC[C@@H](C1)O3)c(=O)n2C)c1cccc(C(F)F)c1F` [Example 1-13]: the Kd in assay [1] was 13.8 nM. Moreover, the IC50 came to 195 nM in assay [2] and 19.3 nM in assay [3].

In turn, `C[C@@H](Nc1ncnc2c1cc(C(=O)N1CCS(=O)(=O)CC1)c(=O)n2C)c1cccc(C(F)F)c1F` [Example 26-38] gave a Kd in assay [1] of 235 nM. Also, the IC50 was 392 nM in assay [2] and 156 nM in assay [3].

In turn, `C[C@@H](Nc1ncnc2c1cc(C1=CCNCC1)c(=O)n2C)c1cccc(C(F)F)c1F` [Example 1-3] displayed a Kd in assay [1] of 7.86 nM. The IC50 in assay [2] is 50.3 nM; in assay [3], 21.2 nM.

The molecule `COc1ncccc1-c1cc2c(N[C@H](C)c3cccc(C(F)F)c3F)nc(C)nc2n(C)c1=O` [Example 21-9] came in with a Kd in assay [1] of 338 nM. The IC50 in assay [2] was 335 nM; in assay [3], 99 nM.

As for `C[C@@H]1CN(C(=O)c2cc3c(N[C@H](C)c4cccc(C(F)F)c4F)ncnc3n(C)c2=O)C[C@H](C)O1` [Example 26-22], the Kd in assay [1] is 474 nM. Also, the IC50 in assay [2] is 2610 nM; in assay [3], 113 nM.

For the molecule `C[C@@H](Nc1ncnc2c1cc(C1CCOCC1)c(=O)n2C)c1cccc(C(F)F)c1F` [Example 1-30], in assay [1], the affinity, expressed as Kd, was 20.1 nM. For the same molecule, the IC50 in assay [2] came to 143 nM; in assay [3] it was 45.8 nM.

In turn, `C[C@@H](Nc1ncnc2c1cc(C1=C[C@@H]3CNC[C@H](C1)O3)c(=O)n2C)c1cccc(C(F)F)c1F` [Example 1-15] had a Kd in assay [1] of 6.29 nM. For the same molecule, the IC50 in assay [2] turned out to be 217 nM; in assay [3] it was 39.8 nM.

For the molecule `Cc1nc(N[C@H](C)c2cccc(C(F)F)c2F)c2cc(C3=CCN(C)CC3)c(=O)n(C)c2n1` [Example 1-10], in assay [1], the Kd worked out at 23.2 nM. Further, the 50% inhibitory concentration (IC50) in assay [2] came out at 425 nM; in assay [3], 42.9 nM.

For `COc1ccc(-c2cc3c(N[C@H](C)c4cccc(C(F)F)c4F)ncnc3n(C)c2=O)cc1OC` [Example 21-10], binding in assay [1] was put at a Kd of 849 nM. The IC50 in assay [2] amounted to 611 nM; in assay [3], 532 nM.

For `C[C@@H](Nc1ncnc2c1cc(C1(F)CCN(C)CC1)c(=O)n2C)c1cccc(C(F)F)c1F` [Example 29-3], the affinity in assay [1], expressed as Kd, was 41.6 nM. Moreover, the 50% inhibitory concentration (IC50) in assay [2] is 120 nM; in assay [3] it was 42.4 nM.
